ChEMBL document CHEMBL1132811, “Bisquaternary caracurine V derivatives as allosteric modulators of ligand binding to M2 acetylcholine receptors” (Bioorg Med Chem Lett, 2000)

Molecular target: T1, Muscarinic acetylcholine receptor M2 (Sus scrofa, UniProt P06199)
T1 sequence (P06199 whole entry): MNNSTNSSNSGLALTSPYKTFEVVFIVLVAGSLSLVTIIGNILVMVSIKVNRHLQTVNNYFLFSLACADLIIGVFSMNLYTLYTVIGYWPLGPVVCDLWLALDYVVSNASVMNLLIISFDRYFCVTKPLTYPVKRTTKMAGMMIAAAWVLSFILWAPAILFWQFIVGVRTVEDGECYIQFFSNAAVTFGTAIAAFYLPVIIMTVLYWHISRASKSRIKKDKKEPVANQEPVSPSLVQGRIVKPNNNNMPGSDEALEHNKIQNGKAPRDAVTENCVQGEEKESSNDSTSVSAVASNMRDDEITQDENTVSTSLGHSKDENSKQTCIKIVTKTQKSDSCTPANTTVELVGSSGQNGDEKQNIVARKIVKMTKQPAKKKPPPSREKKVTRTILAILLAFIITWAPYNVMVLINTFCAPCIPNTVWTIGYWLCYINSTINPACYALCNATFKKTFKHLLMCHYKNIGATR
Assay: Allosteric inhibition of [3H]NMS (N-methyl-scopolamine) dissociation from porcine cardiac Muscarinic acetylcholine receptor M2

| Structure (SMILES) | EC50 [nM] |
| --- | --- |
| O=C1c2ccccc2C(=O)N1CCC[N+]12CCC34c5ccccc5N5[C@@H]6OCC=C7C[N+]8(CCCN9C(=O)c%10ccccc%10C9=O)CCC9%10c%11ccccc%11N([C@@H]%11OCC=C(C1)[C@H](C[C@@H]32)[C@@H]%11[C@H]54)[C@H]9[C@H]6[C@H]7C[C@@H]%108 (some centres not stated) | 376 |
| Brc1ccc(C[N+]23CCC45c6ccccc6N6[C@@H]7OCC=C8C[N+]9(Cc%10ccc(Br)cc%10)CCC%10%11c%12ccccc%12N([C@@H]%12OCC=C(C2)[C@H](C[C@@H]43)[C@@H]%12[C@H]65)[C@H]%10[C@H]7[C@H]8C[C@@H]%119)cc1 (some centres not stated) | 507 |
| C[N+]12CCC34c5ccccc5N5[C@@H]6OCC=C7C[N+]8(C)CCC9%10c%11ccccc%11N([C@@H]%11OCC=C(C1)[C@H](C[C@@H]32)[C@@H]%11[C@H]54)[C@H]9[C@H]6[C@H]7C[C@@H]%108 (some centres not stated) | 8 |
| COc1ccc(C[N+]23CCC45c6ccccc6N6[C@@H]7OCC=C8C[N+]9(Cc%10ccc(OC)c(OC)c%10)CCC%10%11c%12ccccc%12N([C@@H]%12OCC=C(C2)[C@H](C[C@@H]43)[C@@H]%12[C@H]65)[C@H]%10[C@H]7[C@H]8C[C@@H]%119)cc1OC (some centres not stated) | 342 |
| C1=C2C[N+]3(Cc4ccc5ccccc5c4)CCC45c6ccccc6N6[C@@H]7OCC=C8C[N+]9(Cc%10ccc%11ccccc%11c%10)CCC%10%11c%12ccccc%12N([C@H](OC1)[C@@H]([C@H]64)[C@H]2C[C@@H]53)[C@H]%10[C@H]7[C@H]8C[C@@H]%119 (some centres not stated) | 1560 |
| C#CC[N+]12CCC34c5ccccc5N5[C@@H]6OCC=C7C[N+]8(CC#C)CCC9%10c%11ccccc%11N([C@@H]%11OCC=C(C1)[C@H](C[C@@H]32)[C@@H]%11[C@H]54)[C@H]9[C@H]6[C@H]7C[C@@H]%108 (some centres not stated) | 4 |
| FC(F)(F)c1ccc(C[N+]23CCC45c6ccccc6N6[C@@H]7OCC=C8C[N+]9(Cc%10ccc(C(F)(F)F)cc%10)CCC%10%11c%12ccccc%12N([C@@H]%12OCC=C(C2)[C@H](C[C@@H]43)[C@@H]%12[C@H]65)[C@H]%10[C@H]7[C@H]8C[C@@H]%119)cc1 (some centres not stated) | 1750 |
| CCC[N+]12CCC34c5ccccc5N5[C@@H]6OCC=C7C[N+]8(CCC)CCC9%10c%11ccccc%11N([C@@H]%11OCC=C(C1)[C@H](C[C@@H]32)[C@@H]%11[C@H]54)[C@H]9[C@H]6[C@H]7C[C@@H]%108 (some centres not stated) | 30 |
| C1=C2C[N@+]3(Cc4ccccc4)CC[C@]45c6ccccc6N6[C@@H]7OCC=C8C[N@+]9(Cc%10ccccc%10)CC[C@]%10%11c%12ccccc%12N([C@H](OC1)[C@@H]([C@H]64)[C@H]2C[C@@H]53)[C@H]%10[C@H]7[C@H]8C[C@@H]%119 | 69 |
| C=CC[N+]12CCC34c5ccccc5N5[C@@H]6OCC=C7C[N+]8(CC=C)CCC9%10c%11ccccc%11N([C@@H]%11OCC=C(C1)[C@H](C[C@@H]32)[C@@H]%11[C@H]54)[C@H]9[C@H]6[C@H]7C[C@@H]%108 (some centres not stated) | 3 |
| O=[N+]([O-])c1ccc(C[N+]23CCC45c6ccccc6N6[C@@H]7OCC=C8C[N+]9(Cc%10ccc([N+](=O)[O-])cc%10)CCC%10%11c%12ccccc%12N([C@@H]%12OCC=C(C2)[C@H](C[C@@H]43)[C@@H]%12[C@H]65)[C@H]%10[C@H]7[C@H]8C[C@@H]%119)cc1 (some centres not stated) | 315 |
| C1=C2CN3CCC45c6ccccc6N6[C@@H]7OCC=C8CN9CCC%10%11c%12ccccc%12N([C@H](OC1)[C@@H]([C@H]64)[C@H]2C[C@H]35)[C@H]%10[C@H]7[C@H]8C[C@H]9%11 (some centres not stated) | 1190 |
